Experimental data from US5571789A (Haemopep Pharma GmbH, priority 1992, dated 1996).
“Also recorded” adds a separate entry of the source.

Tests used:
[1] = tested on: spontaneous respiration parameters (F, PTP, VT, Cdyn, RL, f, MV); test: Spontaneous respiration parameters by body plethysmograph in narcotized rats; format: in vivo, wistar rats; conditions: for Effect of infusion on spontaneous respiration parameters after ACh provocation: after total inhalation of 600 ml ACh, groups B-D versus control
Procedure: (§1) A total of 33 female 12 week wistar rats having body weights of 300 g served as test animals. The design of the study was that of a simple blind approach. On each of the experiment days, animals of the control group and of the verum group were measured.
(§2) After steady state conditions were attained the initial values of spontaneous respiration were measured first. Thereafter, a randomized infusion of placebo, urodilatin, or ANP was started. In each case evaluations of the continuously determined spontaneous parameters were made 5 minutes after the beginning of the infusion before an inhalatory acetylcholin (ACh) provocation was made (basic values before Ach provocation).
(§3) 5 minutes after the beginning of the infusion each rat was provoked by inhalation of a defined amount of an ACh aerosol. Evaluation of the spontaneous respiration parameters for each animal was performed after a total inhalation volume of 600 ml (values at the end of ACh provocation).

[2] = tested on: broncho-constriction caused by inhalation of acetylcholin; test: Forced expiration (spirography, flow-volume curve) at the end of inhalatory acetylcholin provocation in rats under i.v. infusion; format: in vivo, wistar rats
Procedure: as §1
Employing a test animal body plethysmograph allowed for continuous measurement of the respiration volume (VT), respiration frequency (f), respiration minute volume (MV), resistance of the lung (RL), dynamic compliance (Cdyn), respiration flow (F) and transpulmonary pressure (PTP) of a narcotized, intubated and spontaneously breathing rat. Circulation monitoring was accomplished by EKG recording with evaluation of the heart frequency (HR).
as §2, with “Thereafter, a randomized infusion of placebo, urodilatin, or ANP was started.” left out
By means of an injectomar device the test animals were infused 0.5 ml of solution continuously over a total of 10 minutes.
as §3
To complete the experiments, a forced expiration was performed on each animal in hyperventilation induced apnea. Flow-volume and flow-time (spirography) relations were recorded. The flow-volume curve allows for the evaluation of peak expiratory flow (=PEF), maximum mid-expiratory flow (=MMEF), and flow at 75, 50, 25, and 10% of the forced vital capacity (e.g. FEF 75). Spirography of rats primarily yields the forced vital capacity (FVC) and the expired volume after 0.05, 0.10, 0.20 and 0.40 seconds as an absolute value in ml (e.g. FEV 0.05) or in percent of FVC (e.g. FEV 0.05%).

[3] = cited from earlier work
[4] = tested on: bronchial asthma (lung function parameters); test: Lung function in patients with bronchial asthma under 40 minute i.v. infusion; format: in vivo, human; conditions: for FEV1.0 versus pre values and 20 ng/kg/min group: after 10 minutes of infusion; for PEF, MEF75, MEF50 and MEF25: during infusion; for VCmax versus pre values: during infusion and until 10 minutes thereafter
Source text: The anamnesis gave no evidence for an exacerbation of the disease in the last 8 weeks. No nicotine abuse was known from any of the patients. Additional inclusion criteria were defined by an expiratory one-second-capacity (FEV1.0) of 40 to 70% of the maximum vital capacity (VCmax) before administration of a broncho-spasmolytic agent, an effect of a β2 -sympathomimetic on FEV1.0 of ≥15%, no alteration of the maintenance antiobstructive treatment and no administration of oral corticoids in the last 4 weeks before the beginning of the study. Within 8 hours before the beginning of the examinations no inhalatory application of a β2 -sympathomimetic must have occurred anymore.

[5] = group B, 40 ng/kg/min, 5 minutes after beginning of infusion, before ACh
[6] = group B, 40 ng/kg/min i.v. infusion, end of ACh provocation

CC[C@H](C)[C@@H]1NC(=O)[C@H](CCCNC(=N)N)NC(=O)[C@H](CC(=O)O)NC(=O)[C@H](CCSC)NC(=O)[C@H](CCCNC(=N)N)NC(=O)CNC(=O)CNC(=O)[C@H](Cc2ccccc2)NC(=O)[C@@H](NC(=O)[C@H](CO)NC(=O)[C@H](CO)NC(=O)[C@H](CCCNC(=N)N)NC(=O)[C@H](CCCNC(=N)N)NC(=O)[C@H](CC(C)C)NC(=O)[C@@H](N)CO)CSSC[C@@H](C(=O)N[C@@H](CC(N)=O)C(=O)N[C@@H](CO)C(=O)N[C@@H](Cc2ccccc2)C(=O)N[C@@H](CCCNC(=N)N)C(=O)N[C@@H](Cc2ccc(O)cc2)C(=O)O)NC(=O)CNC(=O)[C@H](CC(C)C)NC(=O)CNC(=O)[C@H](CO)NC(=O)[C@H](CCC(N)=O)NC(=O)[C@H](C)NC(=O)CNC1=O [ANP, atrial natriuretic peptide, reference compound]
Effect of infusion on spontaneous respiration parameters after ACh provocation [1]: without a significant effect
Effect on the ACh induced changes of the parameters of forced expiration ([2]; 70.305 ng/kg/min, equimolar with 80 ng/kg/min urodilatin): less clearly seen
Flow-volume curve parameters versus control group A ([2]; group D, 70.305 ng/kg/min i.v. infusion (equimolar to group C), end of ACh provocation): significant increase only of PEF and FEF 75
Hypotensive effect ([3]; in vivo, iv): hypotensive effect observed

CC(C)(C)NCC(O)c1ccc(O)c(CO)c1 (stereo not shown) [Salbutamol, reference compound]
FEV1.0 ([4]; 1.25 mg Salbutamol inhaled, all three groups): significant increase in FEV1.0
Flow-volume parameters (PEF, MEF75, MEF50, MEF25) ([4]; Salbutamol inhalation, all dosage groups): significant effect

urodilatin
Effect of infusion on spontaneous respiration parameters after ACh provocation [1]: without a significant effect
Cdyn versus initial values [1, 5]: small, significant decrease
PTP and RL versus initial values [1, 5]: slight, significant increase
Respiration frequency versus initial values ([1]; group C, 80 ng/kg/min, 5 minutes after beginning of infusion, before ACh): slight, significant decrease
FEV1.0 versus pre values ([4]; 20 ng/kg/min, any time during or after the infusion): did not show any significant effect
Flow-volume parameters ([4]; 20 ng/kg/min, p<0.05 after 10 and 30 minutes of infusion): increase of the MEF75 measurement value alone
FEV1.0 versus initial values 30 minutes after completion of the infusion ([4]; 40 ng/kg/min): still significantly different from the initial values
Maxima of PEF, MEF75, MEF50, MEF25 under infusion versus results after Salbutamol inhalation ([4]; 40 ng/kg/min): not significantly different from the measurement results after Salbutamol inhalation, except for MEF50
Time of maximum FEV1.0 values ([4]; 40 ng/kg/min infusion): 30 min
FEV1.0 versus pre values and 20 ng/kg/min group ([4]; 40 ng/kg/min): significant increase
PEF, MEF75, MEF50 and MEF25 ([4]; 40 ng/kg/min): increased during the infusion
VCmax versus pre values ([4]; 40 ng/kg/min): significant increase
Maxima of PEF, MEF75, MEF50, MEF25 under infusion versus results after Salbutamol inhalation ([4]; 60 ng/kg/min): not significantly different
Maximum FEV1.0 effect versus values after inhalation of Salbutamol ([4]; 60 ng/kg/min): no longer significantly different
Time of maximum effect on FEV1.0 ([4]; 60 ng/kg/min infusion): 20 min
FEV1.0 versus pre values and 20 ng/kg/min group ([4]; 60 ng/kg/min): significant increase
PEF, MEF75, MEF50 and MEF25 ([4]; 60 ng/kg/min): increased during the infusion
VCmax versus pre values ([4]; 60 ng/kg/min): significant increase
VCmax maxima versus results after Salbutamol inhalation ([4]; 40 and 60 ng/kg/min): did not show any significant differences
MEF50, difference between 40 and 60 ng/kg/min ([4]; after 20 minutes of infusion): significant difference
Broncho-dilatation ([4]; intravenous infusion of 40 and 60 ng/kg/min over 40 minutes, clinically stable bronchial asthma): did not result in a significant broncho-dilatation
Protective effect at 40 ng/kg/min versus ANP in a twofold higher dose on a molar basis ([2]; 40 ng/kg/min versus 70.305 ng/kg/min ANP): clearly more effective than ANP; also recorded: more obvious protective effect than ANP
Protection from broncho-constriction (improved forced expiration) ([2]; animal experiments, parenteral administration): obvious protection
Effect compared with equimolar doses of ANP ([2]; broncho-constriction by inhaled acetylcholin, parenteral administration): more than two times greater
FEV 0.1% (expired volume after 0.1 seconds based on FVC) versus control group A [2, 6]: significant improvement
PEF, MMEF, FEF 75, FEF 50 and FEF 25 of the forced expiratory flow-volume curve versus control group A [2, 6]: clear improvement
PEF, MMEF, FEF 75, FEF 50 and FEF 25 of the forced expiratory flow-volume curve versus control group A ([2]; group C, 80 ng/kg/min i.v. infusion, end of ACh provocation): clear improvement
Effectiveness and duration of action versus ANP (flow-volume curves, FIGS. 1 to 3) ([2]; groups B and C (40, 80 ng/kg/min) versus group D (70.3 ng/kg/min ANP)): more effective and acts for a longer period of time
Other FEV and FEV % values, comparison of groups A-D ([2]; i.v. infusion 40 or 80 ng/kg/min, end of ACh provocation): not significantly distinct
Effect on the ACh induced changes of the parameters of forced expiration relative to control group A ([2]; infusion of 40 and 80 ng/kg/min): clearly protective effects
Glomerular filtration rate, excretion of water, sodium and chloride ([3]; intravenous application): increase the glomerular filtration rate, the excretion of water, sodium and chloride
